In US10947284B2, “Fusion molecules” (Pieris Pharmaceuticals GMBH, priority 2015, dated 2021):

Legend:
[1] = molecular target: hNGAL (human lipocalin 2), wild type, SEQ ID NO: 1 (Homo sapiens, UniProt P80188); experiment: Surface plasmon resonance (Biacore T200); format: binding; conditions: positive control
Description: In a surface plasmon resonance (SPR) based assay, a Biacore T200 instrument (GE Healthcare) was used to measure the binding affinity of individual muteins or fusion molecules to pyoverdine siderophores (to pyoverdine I succinyl, -succinamide, -α-ketoglutaryl with complexed iron ion or to pyoverdine II succinyl, -succinamide, -α-ketoglutaryl with complexed iron ion or to pyoverdine III succinyl, -succinamide, -α-ketoglutaryl with complexed iron ion). To this end, muteins selected for binding to pyoverdines (SEQ ID NOs: 16, 36, 53), a fusion molecule (SEQ ID NO: 134) and a negative control (SEQ ID NO: 64) were biotinylated for 2 h at room temperature applying an appropriate excess of EZ-Link NHS-PEG4-Biotin (Thermo, Cat #21329) followed by separation of non-reacted biotin using a Zebra Spin Desalting Plate (Thermo, […]) according to the manufacturer's instructions.
In the SPR affinity assay, biotinylated muteins and negative control were captured on a sensor chip CAP using the Biotin CAPture Kit (GE Healthcare), wherein the Sensor Chip CAP is pre-immobilized with an ssDNA oligo. […] After ligand immobilization, the four concentrations of Pvd were applied consecutively in ascending order before the dissociation was monitored. […] Data were evaluated with Biacore T200 Evaluation software (V 1.0). […]

[2] = molecular target: T1, hNGAL (human lipocalin 2, parent wild type SEQ ID NO: 1) mutein SEQ ID NO: 62 (Homo sapiens, UniProt P80188, A60Q/C107S/D65G/D97L/I61W/K145F/K154F/K66R/K93I/L123G/L56H/L90D/N85D/Q69R/R101T/R92A/S147I/S88D/W99R/Y120H/Y126G/Y152A/Y72W); experiment: Surface plasmon resonance (Biacore T200), CM5 chip; format: binding; conditions: SPR, high concentrations (≥1 μM)
T1 construct: made in house
T1 sequence (P80188 21-198 with the stated changes): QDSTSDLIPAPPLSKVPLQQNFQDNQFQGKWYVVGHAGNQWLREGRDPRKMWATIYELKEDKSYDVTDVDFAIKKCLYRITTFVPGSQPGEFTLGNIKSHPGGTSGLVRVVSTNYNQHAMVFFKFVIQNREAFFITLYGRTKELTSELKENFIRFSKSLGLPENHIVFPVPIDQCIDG
Description: (§1) Subsequently, 5 μg/mL of mutein or the negative control solution in 10 mM acetate pH 4.0 was applied at a flow rate of 10 μl/min until a high immobilization level of approximately 2000 RU was achieved. Residual activated groups were quenched with ethanolamine. The reference channels were treated with EDC/NHS following ethanolamine (blank immobilization).
The binding assay was carried out with a contact time of 180 s, dissociation times of 1200-1800 s and applying a flow rate of 30 μl/min. Measurements were performed at 25° C. Regeneration of the immobilized mutein surface was achieved by three consecutive injections of 10 mM Gly-HCl pH 1.5 (120 s) followed by an extra wash with running buffer and a stabilization period. Data were evaluated with Biacore T200 Evaluation software (V 1.0). Double referencing was used. The 1:1 Binding model was used to fit the raw data.
Subsequently, 5 μg/mL of mutein or the negative control solution in 10 mM acetate pH 4.0 was applied at a flow rate of 10 μl/min until a high immobilization level of approximately 2000 RU was achieved. Residual activated groups were quenched with ethanolamine. The reference channels were treated with EDC/NHS following ethanolamine (blank immobilization). […] The binding assay was carried out with a contact time of 180 s, dissociation times of 1500-1800 s and applying a flow rate of 30 μl/min. Measurements were performed at 25° C. Regeneration of the immobilized mutein surface was achieved by three consecutive injections of 10 mM Gly-HCl pH 1.5 (120 s) followed by an extra wash with running buffer and a stabilization period. Data were evaluated with Biacore T200 Evaluation software (V 1.0). Double referencing was used. The 1:1 Binding model was used to fit the raw data.

[3] = molecular target: lipocalin negative control SEQ ID NO: 64 (Homo sapiens, UniProt P80188, C107S/Q48H); experiment: Surface plasmon resonance (Biacore T200); format: binding; conditions: Biacore, Example 18
Sequence of lipocalin negative control SEQ ID NO: 64 (P80188 21-198 Q48H/C107S): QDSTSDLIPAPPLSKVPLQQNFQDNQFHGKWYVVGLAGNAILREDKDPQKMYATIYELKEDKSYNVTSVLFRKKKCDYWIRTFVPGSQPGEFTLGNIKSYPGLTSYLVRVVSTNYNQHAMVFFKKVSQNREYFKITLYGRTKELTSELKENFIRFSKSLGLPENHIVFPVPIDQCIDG
Description: In a Surface Plasmon Resonance (SPR) based assay a Biacore T200 instrument (GE Healthcare) was used to measure the binding affinity of muteins to pyoverdine I succinyl, -succinamide, -α-ketoglutaryl with complexed iron ion or to pyoverdine II succinyl, -succinamide, -α-ketoglutaryl with complexed iron ion or to pyoverdine III succinyl, -succinamide, -α-ketoglutaryl with complexed iron ion. Muteins selected for binding to pyoverdines and negative control (SEQ ID NO: 64) were biotinylated for 2 h at room temperature applying an appropriate excess of EZ-Link NHS-PEG4-Biotin (Thermo, Cat #21329) followed by separation of non-reacted Biotin using a Zebra Spin Desalting Plate (Thermo, Cat #21329) according to the manufactures instructions.
In the SPR affinity assay, biotinylated muteins and negative control were captured on a sensor chip CAP using the Biotin CAPture Kit (GE Healthcare): Sensor Chip CAP is pre-immobilized with an ssDNA oligo. Undiluted Biotin CAPture Reagent (streptavidin conjugated with the complementary ss-DNA oligo) was applied at a flow rate of 2 μl/min for 300 s. Subsequently, 1 μg/ml to 100 μg/mL of biotinylated muteins or negative control were applied for 300 s at a flow rate of 5 μl/min. The reference channel was loaded with Biotin CAPture Reagent only.
Applying a flow rate of 30 μl/min, a single cycle or multi cycle kinetics approach was used with a sample contact time of 120-180 s and a dissociation time of 900-2400 s. […] After ligand immobilization, for analysis using single cycle kinetics all 4-5 concentrations of Pvd were applied consecutively in ascending order before the dissociation was monitored. For analysis using multi cycle kinetics 4 dilutions of Pvd were applied, each followed a dissociation phase. All measurements were performed at 25° C. […] Data were evaluated with Biacore T200 Evaluation software (V 1.0). Double referencing was used. A 1:1 Binding model was used to fit the raw data.
as §1
In the SPR affinity assay, biotinylated muteins and negative control were captured on a sensor chip CAP using the Biotin CAPture Kit (GE Healthcare), wherein the Sensor Chip CAP is pre-immobilized with an ssDNA oligo. Undiluted Biotin CAPture Reagent (streptavidin conjugated with the complementary ss-DNA oligo) was applied at a flow rate of 2 μl/min for 300 s. Subsequently, 20 μg/ml to 100 μg/mL of biotinylated muteins or fusion molecule negative control were applied for 300 s at a flow rate of 5 μl/min. The reference channel was loaded with Biotin CAPture Reagent only. To determine the binding affinity, four dilutions of the respective Pvd were prepared in HBS-EP+ buffer (GE Healthcare) and applied to the chip surface. Applying a flow rate of 30 μl/min, a single cycle kinetics approach was used with a sample contact time of 180 s and a dissociation time of 1800-2400 s. […] After ligand immobilization, the four concentrations of Pvd were applied consecutively in ascending order before the dissociation was monitored. All measurements were performed at 25° C. […] Data were evaluated with Biacore T200 Evaluation software (V 1.0). Double referencing was preformed. A 1:1 binding model was used to fit the raw data.

[4] = molecular target: T2, Fusion molecule SEQ ID NO: 134 (hNGAL muteins SEQ ID NOs: 36, 16, 53 and 62) (Homo sapiens, UniProt P80188, A60T/C107S/D97H, form not given/K145I/K154W/K93R/L123T/L56V/L90R/N85D/Q69G/R101D/R92I/S147R/S88D/T74A/W99Y/Y126Q/Y152I/Y72N); experiment: Surface plasmon resonance (Biacore T200); format: binding
T2 construct: made in house; host or cells: HEK293
T2 sequence (P80188 with tags, fused parts or gaps with the stated changes, form open): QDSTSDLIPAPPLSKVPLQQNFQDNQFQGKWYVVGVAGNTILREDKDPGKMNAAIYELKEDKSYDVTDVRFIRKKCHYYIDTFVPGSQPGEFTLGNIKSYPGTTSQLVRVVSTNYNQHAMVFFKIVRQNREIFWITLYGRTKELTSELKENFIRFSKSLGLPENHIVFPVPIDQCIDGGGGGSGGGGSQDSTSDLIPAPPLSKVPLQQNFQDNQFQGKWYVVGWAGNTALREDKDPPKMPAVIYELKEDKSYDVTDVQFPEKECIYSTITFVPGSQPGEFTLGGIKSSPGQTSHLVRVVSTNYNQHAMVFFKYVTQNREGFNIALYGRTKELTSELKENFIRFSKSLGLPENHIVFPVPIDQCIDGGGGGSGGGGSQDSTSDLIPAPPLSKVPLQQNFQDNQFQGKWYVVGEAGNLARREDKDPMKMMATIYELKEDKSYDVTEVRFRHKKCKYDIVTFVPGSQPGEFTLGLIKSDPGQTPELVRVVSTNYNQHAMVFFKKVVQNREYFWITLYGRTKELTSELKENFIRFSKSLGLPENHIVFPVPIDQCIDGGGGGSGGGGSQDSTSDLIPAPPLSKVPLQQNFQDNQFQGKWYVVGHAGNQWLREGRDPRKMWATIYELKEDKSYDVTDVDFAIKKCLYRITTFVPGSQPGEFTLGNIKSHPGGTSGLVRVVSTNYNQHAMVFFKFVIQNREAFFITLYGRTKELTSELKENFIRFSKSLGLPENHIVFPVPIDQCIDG

P. aeruginosa PA01 = experiment: Chronic lung infection model in rats; format: in vivo, Sprague Dawley rats; conditions: 20 mg/kg/dose, IV BD, treatment from day 3 post infection
Description: P. aeruginosa, PA01, was recovered from long-term storage at −80° C. by sub-culturing onto fresh blood agar plates and incubating at 37° C. overnight. The inoculum was prepared by picking 5-10 distinct colonies from the culture plates followed by suspension in 10 mL of Muller-Hinton broth. The culture was incubated for 18 hours on an orbital shaker at 300 rpm and 37° C. The culture was washed twice in PBS, then the pellet was resuspended in PBS and adjusted to an optical density of 0.669 at 600 nm (approximately 1.2×10^9 CFU/mL). This was further diluted to give an inoculum concentration of 6×10^7 CFU/mL. 1 mL of this inoculum was added to 30 mL of bacteriological agar, used to prepare the agarose beads (Cash H. A. et al., 1979). The final concentration of PA01 in the agarose beads was 2×10^6 CFU/mL (1×10^5 CFU per 50 μL inoculum).
Sprague Dawley rats used in this study were supplied by Charles River Laboratories UK. Rats were 200-225 g at the time of delivery and were specific pathogen free. Following arrival, rats were allowed at least 7 days acclimatization before the study was started. Rats were 250-300 g at the start of the study. Rats were group housed in sterile individually ventilated cages exposing the animals at all times to HEPA filtered sterile air. Rats had free access to food and water (sterile) and had sterile aspen chip bedding (changed every 3-4 days or as appropriate). […]

Sequence of hNGAL (human lipocalin 2), wild type, SEQ ID NO: 1 (P80188 21-198): as the sequence (P80188 21-198 Q48H/C107S) above, with H28Q, S87C counted along it

For `O=C(N[C@H]1COC(=O)[C@@H](NC(=O)c2cccc(O)c2O)COC(=O)[C@@H](NC(=O)c2cccc(O)c2O)COC1=O)c1cccc(O)c1O.[Fe+3]` [Fe-Enterobactin, Fe-enterobactin], the binding [1] was “showed binding”, the binding [2] was “absence of binding” and the binding [3] was “showed binding”. For the same compound, the KD ([4]; Biacore, 25° C., Table 13) was “no bdg” and the binding ([4]; SPR, high concentrations (≥1 μM)) was “absence of binding”.
In the case of `NC[C@H]1O[C@H](O[C@H]2[C@H](O)[C@@H](O[C@H]3O[C@H](CO)[C@@H](O)[C@H](N)[C@H]3O)[C@H](N)C[C@@H]2N)[C@H](N)C[C@@H]1O` [Tobramycin], the “clearance of lung infection” value (P. aeruginosa PA01) is reported as “cleared the infection starting from day 5 post-infection”.
